In the experiment the test system is HCT-116. Kind of experiment: In vitro cytotoxicity against human colon carcinoma cells (HCT116). Type of experiment: functional, cell-based.

What is called IC50 is the point on the concentration scale where inhibition reaches its midpoint. A lower IC50 goes with higher potency.

Converted amounts (≈) assume the structure as drawn.

With `CC1(C)C2=CC(=O)CC[C@@]1(O)C#C/C=C\C#C[C@H]2O`, the IC50 amounted to 18 µg/mL (≈ 70.2 µM).

Values taken from ChEMBL document CHEMBL1129091, “Synthesis and biological evaluation of a bicyclo [7.4.1]enediyne” (Bioorg Med Chem Lett, 1996).
